Test results as given in PMC10381170, “1,3,4-Oxadiazole and 1,3,4-Thiadiazole Nortopsentin Derivatives against Pancreatic Ductal Adenocarcinoma: Synthesis, Cytotoxic Activity, and Inhibition of CDK1” (Marine Drugs, 2023).

Columns and labels:
Capan-1 cells = assay: SRB antiproliferative assay, Capan-1; format: cell-based, human
Description: (§1) The cytotoxic activity of the nortopsentin derivatives 3b, 3e, 4c, 5b, and 6c on pancreatic cancer cells (BxPC-3, Panc-1, Suit-2, Capan-1, PaTu-T, primary PDAC-3 and resistant Panc-1-GR cells) was determined by the sulforhodamine B (SRB) chemosensitivity assay, as described previously. Cells were plated in 96-well flat-bottom plates at final concentrations ranging from 3000–5000 cells/well in 100 µL of medium. After a 24 h pre-incubation period, cells were treated with the compounds at nine screening concentrations (from 0.1 μM to 40 μM) in triplicate and incubated at 37 °C for 72 h. After the treatment, cells were fixed with 25 µL of cold 50% trichloroacetic acid (TCA) for each well and incubated at 4 °C for 1 h. Afterwards, plates were washed five times with demi-water and air-dried overnight. Then, the plates were stained with 50 µL of 0.4% SRB solution in 1% acetic acid for 15 min. The excess stain was rinsed off by placing the plates under running 1% acetic acid and allowed to dry at room temperature overnight. SRB staining was rinsed with 150 µL tris(hydroxymethyl)aminomethane solution pH = 8.8 (TRIS-base), and the optical density (OD) was read at 492 nm. Each assay was performed in triplicate and assays were repeated at least three times. The comparison of the average optical density of the growth in control wells with that in the sample wells allowed the estimation of the percentage of cell growth, using the following equation: % Cell Growth = (mean ODcompound − mean ODday zero plate)/(mean ODcells − mean ODday zero plate) × 100
(§2) The results obtained were adjusted by the day zero plate (wells containing cells growing for only 24 h) and normalized by the control cells (wells with untreated cells) to obtain the rate of viable cells.

Suit-2 cells = assay: Cell-cycle analysis by PI flow cytometry, Suit-2; format: cell-based, human
Description: Cell cycle perturbation was analyzed by flow cytometry. Optimized numbers of cells (5 × 10^5 cells/mL) were seeded in 6-well plates. […] After treatment, the cells were harvested by trypsinization (250 µL trypsin-EDTA/well), incubated until the cells detached, re-suspended using the same medium used for culture, collected in specific FACS (Fluorescence Activated Cell Sorting) tubes, and washed with 1.5 mL phosphate-buffered saline (PBS). The samples were then centrifuged to form a pellet (5 min at 1500 rpm). These pellets were fixed in 1 mL of ice-cold 70% ethanol, added drop by drop during vortex, and placed in the refrigerator at 4 °C. After overnight incubation, the cells were washed twice with PBS, centrifuged (5 min at 1500 rpm), re-suspended in […] of RNase ([…]) and incubated for 30 min at 37 °C. Finally, […] of propidium iodide solution (PI, […]) was added, and the cell distribution in the various phases of the cell cycle was analyzed in a FACS Calibur instrument. Data analysis was carried out with FACSdiva software (Becton Dickinson), while cell cycle distribution was determined using Modfit software (Verity-Software, Topsham, ME, USA).

PDAC-3 cells = assay: SRB antiproliferative assay, primary culture PDAC-3; format: cell-based, human
Description: as §1, §2

PDAC cells = assay: SRB antiproliferative assay, whole PDAC panel; format: cell-based; conditions: Homo sapiens; seven PDAC models, 72 h; read-out: IC50 values, range over the PDAC cell panel
Description: as §1, with “The comparison of the average optical density of the growth in control wells with that in the sample wells allowed the estimation of the percentage of cell growth, using the following equation: % Cell Growth = (mean ODcompound − mean ODday zero plate)/(mean ODcells − mean ODday zero plate) × 100” left out

[1] = Suit-2, 2 μM, 24 h (control 23%)
[2] = Suit-2, 4-fold IC50, 24 h (control 23%)

melting point: 239 °C
Compound: Cn1cc(-c2nnc(-c3cn(C)c4ncccc34)o2)c2ccccc21 [3b, 1-methyl-3-[5-(1-methyl-1H-indol-3-yl)-1,3,4-oxadiazol-2-yl]-7-azaindole]
Cell growth percentage (Capan-1 cells; Capan-1, 10 μM, 72 h exposure): 18.33% | IC50 (Capan-1 cells; Homo sapiens, Capan-1, 72 h, mean ± SEM, read-out: Half-maximal inhibitory concentration (IC50)): 2.6 ± 0.62 µM | percentage of cells in G2-M phase (Suit-2 cells; [1]): 75% | percentage of cells in S phase (Suit-2 cells; [1]): 15% | percentage of cells in G0-G1 phase (Suit-2 cells; Suit-2, 2 μM, 24 h (control 54%)): 10% | percentage of cells in G2-M phase (Suit-2 cells; [2]): 76% | percentage of cells in S phase (Suit-2 cells; [2]): 14% | percentage of cells in G0-G1 phase (Suit-2 cells; Suit-2, 4-fold IC50, 24 h (control 54%)): 10% | IC50 (PDAC-3 cells; Homo sapiens, PDAC-3, 72 h, mean ± SEM, read-out: Half-maximal inhibitory concentration (IC50)): 8.1 ± 0.14 µM | Cell growth percentage (PDAC-3 cells; PDAC-3, 10 μM, 72 h exposure): 38.35% | IC50 (PDAC cells): 1.4 to 8.1 µM
